Earlier results as cited in patent US7803960B2, “Phenyloxyaniline derivatives” (Bayer Schering Pharma Aktiengesellschaft, priority 2006, dated 2010).

What was measured:
[1] = test system: Peripheral benzodiazepine receptor (PBR); conditions: compared with [^11C]PK11195 (1)
[2] = compared with [^11C]PK11195 (1)
PBRs = target: T1, PBRs (Homo sapiens, UniProt P30536); conditions: C-11 isotope labeled version, in vivo imaging
T1 construct: host or cells: brain, in vivo
T1 sequence (P30536 whole entry): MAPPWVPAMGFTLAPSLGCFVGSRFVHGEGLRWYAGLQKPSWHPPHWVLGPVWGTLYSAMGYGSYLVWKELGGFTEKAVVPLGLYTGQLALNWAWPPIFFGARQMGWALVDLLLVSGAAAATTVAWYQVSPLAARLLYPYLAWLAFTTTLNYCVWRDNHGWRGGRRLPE

binding affinity to PBR [1] | accumulation in the brain [2] | Structure (SMILES) | signal in the brain (PBRs)
higher | higher | COc1ccc(O[11CH3])c(CN(C(C)=O)c2cc(F)ccc2Oc2ccccc2)c1 [Compound 2] | 
 |  | CC[C@@H](C)N(C)C(=O)c1cc2ccccc2c(-c2ccccc2Cl)n1 [PK11195] | not high enough for stable quantitative analysis
higher | higher | COc1ccc(OCC[18F])c(CN(C(C)=O)c2cc(F)ccc2Oc2ccccc2)c1 [Compound 3, N-(5-Fluoro-2-phenoxyphenyl)-N-(2-(2-[^18F]fluoroethoxy)-5-methoxybenzyl)acetamide] | 
